Measured values published in patent publication US20080280954A1, “Method of Improving Wakefulness” (VANDA PHARMACEUTICALS, INC, priority 2005, published 2008).
Read-outs that look alike come from different tables or passages of the source.

Columns and labels:
[1] = test system: sleep-wakefulness cycle in rats
Protocol: In a first set of experiments, the oral (p.o.) and subcutaneous (s.c.) actions of Compound A were evaluated in the sleep-wakefulness cycle in rats. For this purpose the salt forms multifumarate (mfu) or fumarate (fu) were used.
The experiments were carried out in nonanesthetized unrestrained male Wistar rats prepared with chronically implanted electrodes for the recording of the electrocorticogram (ECoG). The animals were caged in a room, maintained at a constant temperature of 22° C. and artificially lighted for 12 hours daily. Before beginning of the experiment, the animals were given a 1 to 3 day period of acclimatization in the recording cages and had complete freedom of movement even when the recording cables were attached. The ECOG recordings were made continuously during 22 to 23-hours period, 15 min after drug administration. Each animal served as its own control. In one experiment, recordings of EcoG were also obtained after administration of distilled water (vehicle used with Compound A) for comparison with no administration, or administration of Compound A.

[2] = test system: sleep-wakefulness cycle in rats with lesions of the nucleus basalis of Meynert (NBM) and locus coeruleus (LC)
Protocol: In a second set of experiment, oral actions of Compound A were evaluated in the sleep-wakefulness cycle in rats with lesions of the nucleus basalis of Meynert (NBM) and locus coeruleus (LC). For this purpose the salt form multifumarate (mfu) was used.
Male rats were used. They were anesthetized with pentobarbital (50 mg/kg i.p.) and positioned in a stereotaxic apparatus with the upper incisor bar set 5 mm (locus coeruleus, LC) or 3.3 mm (Nucleus basalis of Meynert, NBM) below the interaural line. The lesions were carried out with a radio frequency lesion generator at 60° C. in 10 sec. A corresponding group of sham lesioned rats was carried out. The animals were individually kept in single cage during 6 months after the lesions. Five months after lesion, cortical electrodes were implanted. The animals were caged in a room, maintained at a constant temperature of 22° C. and artificially lighted for 12 hours daily. Before beginning of the experiment, the animals were given a 1 day period of acclimatization in the recording cages. These were tall plastic cylinders within the animals had complete freedom of movement even when the recording cables were attached. ECOG recordings were made continuously during 22-hours period/day, 15 min after the installation of the animal or 15 min after drug administration.
Four groups of animals were studied (A1-4), and statistical analysis (T-test, p<0.05) was performed between the different groups.
A1: 5 lesioned animals, which had received 35 days after lesion 3 mg/kg p.o. of
Compound A during 5 days. Implementation of electrodes 5 months later.
Recording of ECOG on the 22d and 23d days after implantation.
A2: Same as A1 but treated with vehicle instead of Compound A.
A3: S Same as A1 but with Sham rats instead of lesioned animals.
A4: Same as A3 but treated with vehicle instead of Compound A.

[3] = 10 mg/kg p.o., 7-11 hours after administration
[4] = 30 mg/kg p.o., first 4 hours of recording
[5] = 3 mg/kg p.o. (mfu) during 5 days, 35 days after lesion, all recording periods

Cc1nccn1Cc1ccccn1 [Compound A, [2-(2-methylimidazol-1-yl)methyl]pyridine]
REM sleep duration ([1]; 1 mg/kg s.c., first 2 hours): reduced | wakefulness ([1]; 1 mg/kg s.c., first 4 hours): enhanced | slow-wave sleep (SWS) sleep onset ([1]; 3 mg/kg p.o.): significantly delayed | active waking ([1]; 3 mg/kg p.o., between 0-4 and 7-11 hours): tended to be increased | REM sleep duration ([1]; 3 mg/kg p.o., first 4 hours): reduced | classical sleep ([1]; 3 mg/kg p.o., first 4 hours): reduced | wakefulness ([1]; 3 mg/kg p.o., first 4 hours): increase | active waking ([1]; 3 mg/kg p.o., last recording interval 18.75-23 hours): significantly increased | REM sleep onset ([1]; 10 mg/kg p.o.): strongly delayed | SWS onset ([1]; 10 mg/kg p.o.): tended to also delay | active waking ([1]; 10 mg/kg p.o., 0-4 hours after administration): significantly increased | REM sleep [1, 3]: tended to be increased | SWS duration [1, 3]: decreased | waking time [1, 3]: significantly increased | classical sleep ([1]; 10 mg/kg p.o., during 3 hours): decreased | waking time ([1]; 10 mg/kg p.o., first 6 hours): tended to increase | REM sleep duration ([1]; 10 mg/kg p.o., for several hours): significantly reduced | REM sleep onset ([1]; 30 mg/kg p.o.): strongly delayed | SWS onset ([1]; 30 mg/kg p.o.): strongly delayed | time the decrease of REM sleep lasted ([1]; 30 mg/kg p.o.): about 11 hours | time the increase of wakefulness lasted ([1]; 30 mg/kg p.o.): about 9 hours | REM sleep duration ([1]; 30 mg/kg p.o., 4-7 hours after administration): decreased | REM sleep duration [1, 4]: decreased | SWS duration [1, 4]: decreased | waking time [1, 4]: increased | changes in the rat nycthemeral rhythm ([1]; 3, 10 and 30 mg/kg (mfu) p.o., 3 and 10 mg/kg (fu) p.o., 1, 3 and 10 mg/kg (mfu) s.c., dose dependent): significant changes | effects on sleep-wakefulness cycle compared with oral administration ([1]; 3 and 10 mg/kg s.c.): nearly the same effects as by oral administration | effect availability (s.c. versus p.o. action) ([1]; action quite similar by s.c. and p.o. administration): good | effects on the sleep wakefulness cycle compared with the mfu form ([1]; fu salt form, 3 and 10 mg/kg p.o.): same effects | lesion-induced decrease of classical sleep [2, 5]: partly prevented | lesion-induced increase of wakefulness [2, 5]: partly prevented | alterations of the sleep-wakefulness cycle due to the lesions ([2]; 3 mg/kg p.o. (mfu) during 5 days, 35 days after lesion, recording more than 5 months later, all recording periods): important reduction | nycthemeral cycle abnormalities induced by simultaneous LC+NBM lesions ([2]; several months after last administration): reduce
